Reference: PubChem BioAssay (NCI)
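Test compounds were applied to cells in 96-well plates for 48 hours at 5 doses. TGI marks complete inhibition of growth.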

Experiments:
Assay in all cases: growth of human tumour cells (NCI), 48 h
786-0 renal = test system: 786-0 renal
A498 renal = test system: A498 renal
A549 NSCLC = test system: A549 NSCLC
ACHN renal = test system: ACHN renal
BT-549 breast = test system: BT-549 breast
CCRF-CEM leukemia = test system: CCRF-CEM leukemia
COLO 205 colon = test system: COLO 205 colon
DU-145 prostate = test system: DU-145 prostate
EKVX NSCLC = test system: EKVX NSCLC
HCC-2998 colon = test system: HCC-2998 colon
HCT-116 colon = test system: HCT-116 colon
HCT-15 colon = test system: HCT-15 colon
HOP-62 NSCLC = test system: HOP-62 NSCLC
HOP-92 NSCLC = test system: HOP-92 NSCLC
HS 578T breast = test system: HS 578T breast
HT29 colon = test system: HT29 colon
IGROV1 ovarian = test system: IGROV1 ovarian
K-562 leukemia = test system: K-562 leukemia
KM12 colon = test system: KM12 colon
M14 melanoma = test system: M14 melanoma
MALME-3M melanoma = test system: MALME-3M melanoma
MCF7 breast = test system: MCF7 breast
MDA-MB-435 = test system: MDA-MB-435
MDA-N = test system: MDA-N
MOLT-4 leukemia = test system: MOLT-4 leukemia
NCI-H226 lung = test system: NCI-H226 lung
NCI-H23 lung = test system: NCI-H23 lung
NCI-H460 lung = test system: NCI-H460 lung
NCI/ADR-RES ovarian = test system: NCI/ADR-RES ovarian
OVCAR-3 ovarian = test system: OVCAR-3 ovarian
OVCAR-5 ovarian = test system: OVCAR-5 ovarian
OVCAR-8 ovarian = test system: OVCAR-8 ovarian
PC-3 prostate = test system: PC-3 prostate
RPMI-8226 leukemia = test system: RPMI-8226 leukemia
RXF 393 renal = test system: RXF 393 renal
SF-268 CNS = test system: SF-268 CNS
SF-295 CNS = test system: SF-295 CNS
SF-539 CNS = test system: SF-539 CNS
SK-MEL-28 melanoma = test system: SK-MEL-28 melanoma
SK-MEL-5 melanoma = test system: SK-MEL-5 melanoma
SK-OV-3 ovarian = test system: SK-OV-3 ovarian
SN12C renal = test system: SN12C renal
SNB-19 CNS = test system: SNB-19 CNS
SNB-75 CNS = test system: SNB-75 CNS
SR leukemia = test system: SR leukemia
SW-620 colon = test system: SW-620 colon
T-47D breast = test system: T-47D breast
TK-10 renal = test system: TK-10 renal
U251 CNS = test system: U251 CNS
UACC-257 melanoma = test system: UACC-257 melanoma
UACC-62 melanoma = test system: UACC-62 melanoma
UO-31 renal = test system: UO-31 renal
CAKI-1 renal = test system: CAKI-1 renal
HL-60(TB) leukemia = test system: HL-60(TB) leukemia
LOX IMVI melanoma = test system: LOX IMVI melanoma
MDA-MB-231 breast = test system: MDA-MB-231 breast
NCI-H522 lung = test system: NCI-H522 lung
SK-MEL-2 melanoma = test system: SK-MEL-2 melanoma

For `COc1cc(COC(=O)N[C@H](C(=O)O)C(C)(C)C)c([N+](=O)[O-])cc1OC`, the TGI (786-0 renal) was > 100 µM, the TGI (A498 renal) was > 100 µM and the TGI (A549 NSCLC) was > 100 µM. For the same molecule, the TGI (ACHN renal) was > 100 µM, the TGI (BT-549 breast) was > 100 µM and the TGI (CCRF-CEM leukemia) was > 100 µM. The TGI (COLO 205 colon) was > 100 µM, the TGI (DU-145 prostate) was > 100 µM and the TGI (EKVX NSCLC) was > 100 µM. For the same molecule, the TGI (HCC-2998 colon) was > 100 µM, the TGI (HCT-116 colon) was > 100 µM and the TGI (HCT-15 colon) was > 100 µM. For the same molecule, the TGI (HOP-62 NSCLC) was > 100 µM, the TGI (HOP-92 NSCLC) was > 100 µM and the TGI (HS 578T breast) was > 100 µM. For the same molecule, the TGI (HT29 colon) was > 100 µM, the TGI (IGROV1 ovarian) was > 100 µM and the TGI (K-562 leukemia) was > 100 µM. For the same molecule, the TGI (KM12 colon) was > 100 µM, the TGI (M14 melanoma) was > 100 µM and the TGI (MALME-3M melanoma) was > 100 µM. For the same molecule, the TGI (MCF7 breast) was > 100 µM, the TGI (MDA-MB-435) was > 100 µM and the TGI (MDA-N) was > 100 µM. For the same molecule, the TGI (MOLT-4 leukemia) was > 100 µM, the TGI (NCI-H226 lung) was > 100 µM and the TGI (NCI-H23 lung) was > 100 µM. The TGI (NCI-H460 lung) was > 100 µM, the TGI (NCI/ADR-RES ovarian) was > 100 µM and the TGI (OVCAR-3 ovarian) was > 100 µM. The TGI (OVCAR-5 ovarian) was > 100 µM, the TGI (OVCAR-8 ovarian) was > 100 µM and the TGI (PC-3 prostate) was > 100 µM. For the same molecule, the TGI (RPMI-8226 leukemia) was > 100 µM, the TGI (RXF 393 renal) was > 100 µM and the TGI (SF-268 CNS) was > 100 µM. The TGI (SF-295 CNS) was > 100 µM, the TGI (SF-539 CNS) was > 100 µM and the TGI (SK-MEL-28 melanoma) was > 100 µM. The TGI (SK-MEL-5 melanoma) was > 100 µM, the TGI (SK-OV-3 ovarian) was > 100 µM and the TGI (SN12C renal) was > 100 µM. The TGI (SNB-19 CNS) was > 100 µM, the TGI (SNB-75 CNS) was > 100 µM and the TGI (SR leukemia) was > 100 µM. The TGI (SW-620 colon) was > 100 µM, the TGI (T-47D breast) was > 100 µM and the TGI (TK-10 renal) was > 100 µM. For the same molecule, the TGI (U251 CNS) was > 100 µM, the TGI (UACC-257 melanoma) was > 100 µM and the TGI (UACC-62 melanoma) was > 100 µM. For the same molecule, the TGI (UO-31 renal) was > 100 µM.
`Oc1ccccc1C(c1cc2c(cc1O)OCO2)N1CCOCC1` (stereo not drawn) gave a TGI (786-0 renal) of 22.6 µM, a TGI (A498 renal) of 42.2 µM and a TGI (A549 NSCLC) of 57.6 µM. The TGI (ACHN renal) was 31.5 µM, the TGI (BT-549 breast) was 30.9 µM and the TGI (CAKI-1 renal) was 35.9 µM. The TGI (CCRF-CEM leukemia) was 5.26 µM, the TGI (COLO 205 colon) was 34.8 µM and the TGI (DU-145 prostate) was > 100 µM. For the same molecule, the TGI (EKVX NSCLC) was > 100 µM, the TGI (HCC-2998 colon) was 33.9 µM and the TGI (HCT-116 colon) was 31.5 µM. For the same molecule, the TGI (HCT-15 colon) was 36.8 µM, the TGI (HL-60(TB) leukemia) was 4.27 µM and the TGI (HOP-62 NSCLC) was > 100 µM. For the same molecule, the TGI (HOP-92 NSCLC) was 34.1 µM, the TGI (HS 578T breast) was 56.4 µM and the TGI (HT29 colon) was 35.2 µM. It also gave a TGI (IGROV1 ovarian) of 35.7 µM, a TGI (K-562 leukemia) of 23.5 µM and a TGI (KM12 colon) of 43 µM. The TGI (LOX IMVI melanoma) was 43.4 µM, the TGI (M14 melanoma) was 34.3 µM and the TGI (MALME-3M melanoma) was 32.2 µM. The TGI (MCF7 breast) was 38.3 µM, the TGI (MDA-MB-231 breast) was 36.1 µM and the TGI (MDA-MB-435) was 34.9 µM. For the same molecule, the TGI (MDA-N) was 37.6 µM, the TGI (MOLT-4 leukemia) was 40.6 µM and the TGI (NCI-H226 lung) was > 100 µM. For the same molecule, the TGI (NCI-H23 lung) was 46.6 µM, the TGI (NCI-H460 lung) was 72.7 µM and the TGI (NCI-H522 lung) was 24.3 µM. It also gave a TGI (OVCAR-3 ovarian) of 31.6 µM, a TGI (OVCAR-5 ovarian) of 57.8 µM and a TGI (OVCAR-8 ovarian) of 44.7 µM. The TGI (PC-3 prostate) was 31.6 µM, the TGI (RPMI-8226 leukemia) was 41.7 µM and the TGI (RXF 393 renal) was 30.8 µM. It also gave a TGI (SF-268 CNS) of 36.9 µM, a TGI (SF-295 CNS) of 41.6 µM and a TGI (SF-539 CNS) of 39.2 µM. The TGI (SK-MEL-2 melanoma) was 36 µM, the TGI (SK-MEL-28 melanoma) was 38.5 µM and the TGI (SK-MEL-5 melanoma) was 31.7 µM. For the same molecule, the TGI (SK-OV-3 ovarian) was > 100 µM, the TGI (SN12C renal) was 34.3 µM and the TGI (SNB-19 CNS) was 37.2 µM. For the same molecule, the TGI (SNB-75 CNS) was 32 µM, the TGI (SR leukemia) was 24.6 µM and the TGI (SW-620 colon) was 70.8 µM. It also gave a TGI (T-47D breast) of 33.8 µM, a TGI (U251 CNS) of 30.2 µM and a TGI (UACC-257 melanoma) of 36.1 µM. It also gave a TGI (UACC-62 melanoma) of 32.3 µM and a TGI (UO-31 renal) of 29.3 µM.
